Data reported in US20250152650A1, “COMPOSITIONS FOR TREATING SEA LICE IN SALMON AND RELATED METHODS” (KEMIN INDUSTRIES, INC., priority 2023, published 2025).
Where two headings read alike, the source gives them in different places.

Legend:
[1] = system: L. salmonis copepodids of Canadian origin; assay: Copepodid bioassay, copepodids of Canadian origin; design: species or system Lepeophtheirus salmonis; settings: for Mean proportion of survival: 24 hours exposure
[2] = system: mobile stage sea lice (adults and pre-adults); assay: Mobile stages bioassay; design: species or system Lepeophtheirus salmonis
copepodid sea lice = settings: 10 parts per trillion, purified compounds; cited from earlier work
sea lice = assay: In-feed trial with sea lice challenge in Atlantic salmon; format: in vivo, Atlantic salmon (Salmo salar); settings: for Reduction Versus Control: reduction in mean number of lice at 6-7 dpi versus Control Diet; for Reduction Versus Control / Reduction Versus SLICE: diet doses as in Table 10; for Reduction Versus SLICE: reduction in mean number of lice at 6-7 dpi versus SLICE (10 ppm) diet; for Mean Number of Lice: total copepodid and chalimus lice per fish at 6-7 dpi, study diet fed 3 weeks before challenge with approx. 140 lice per fish, O-LD oregano oil 2000 ppm, O-HD 5000 ppm, M-LD Monarda fistulosa oil 2000 ppm, thymol 1000 ppm, thymoquinone 500 ppm, SLICE 10 ppm
[3] = system: copepodids of Norwegian origin; settings: for Mean proportion of survival: 24 hours exposure
[4] = system: copepodids of Norwegian origin; assay: whole plant or invertebrate; settings: Lepeophtheirus salmonis, 24 h, read-out: lethality / lice mortality
salmon = settings: farmed salmon; cited from earlier work

Row | Molecule | Mean proportion of survival ([2]; 10 ppm, 6 hours exposure) [%] | Mean proportion of survival ([2]; 10 ppm, 24 hours exposure) [%] | masking of copepodid attraction to hosts or alpha-isophorone conditioned seawater (copepodid sea lice) | Mean proportion of survival ([2]; 1 ppb, 6 hours exposure) [%] | Mean proportion of survival ([2]; 1 ppb, 24 hours exposure) [%] | Mean proportion of survival ([2]; 1 ppm, 6 hours exposure) [%] | Mean proportion of survival ([2]; 1 ppm, 24 hours exposure) [%] | Mean proportion of survival ([2]; 10 ppb, 6 hours exposure) [%] | Mean proportion of survival ([2]; 10 ppb, 24 hours exposure) [%] | Mean proportion of survival ([2]; 100 ppb, 6 hours exposure) [%] | Mean proportion of survival ([2]; 100 ppb, 24 hours exposure) [%] | Reduction Versus Control (sea lice) [%] | Reduction Versus SLICE (sea lice) [%] | Mean Number of Lice (sea lice) | Mean proportion of survival ([3]; 0.01 ppb) [%] | Mean proportion of survival ([3]; 0.1 ppb) [%] | Mean proportion of survival ([3]; 1 ppb) [%] | Mean proportion of survival ([3]; 1 ppm) [%] | Mean proportion of survival ([3]; 10 ppb) [%] | Mean proportion of survival ([3]; 10 ppm) [%] | also measured
1 | C=CCSSCC=C [Diallyl disulfide, diallyl disulfide] | 100.0 ± 0.0 | 96.7 ± 4.7 | masked copepodid sea lice attraction to hosts | – | – | – | – | – | – | – | – | – | – | – | – | – | – | – | – | – | Mean proportion of survival ([1]; 1 ppb): 96.9 ± 2.7%; Mean proportion of survival ([1]; 1 ppm): 86.3 ± 4.0%; Mean proportion of survival ([1]; 10 ppb): 93.6 ± 8.0%; Mean proportion of survival ([1]; 10 ppm): 34.6 ± 6.4%; Mean proportion of survival ([1]; 10 ppm, listed as DD): 34.6%; Mean proportion of survival ([1]; 100 ppb): 95.2 ± 4.6%; Mean proportion of survival ([1]; 100 ppm (0.01%)): 17.4 ± 3.2%; Mean proportion of survival ([1]; 100 ppm (0.01%), listed as DD): 17.4%; survival compared to control, in words ([2]; 10 and 100 ppm): did not result in different survival compared to control; Mean proportion of survival ([2]; 100 ppm, 6 hours exposure): 96.2 ± 5.4%; Mean proportion of survival ([2]; 100 ppm, 24 hours exposure): 88.7 ± 5.8%
2 | Cc1ccc(C(C)C)c(O)c1 [Thymol] | 23.7 ± 6.9 | – | – | 100.0 ± 0.0 | 96.2 ± 5.4 | 92.8 ± 0.7 | 92.8 ± 0.7 | 95.8 ± 5.9 | 88.1 ± 5.0 | 97.1 ± 4.2 | 97.1 ± 4.2 | 1.2 | −14.6 | 86.5 | 98.7 ± 2.2 | 93.9 ± 4.4 | 100.0 ± 0.0 | 87.9 ± 3.9 | 93.1 ± 9.3 | 56.1 ± 2.0 | Mean proportion of survival ([2]; 1 ppm, 24 hours exposure, listed as thymol): not significantly different to control; Mean proportion of survival ([3]; 100 ppb): 84.4 ± 6.1%
3 | CC1=CC(=O)C(C(C)C)=CC1=O [Thymoquinone] | 60.7 ± 5.1 | 0.0 ± 0.0 | – | 93.3 ± 9.4 | 93.3 ± 9.4 | 100.0 ± 0.0 | 83.7 ± 14.7 | 81.7 ± 5.4 | 87.1 ± 5.4 | 91.7 ± 2.4 | 91.7 ± 2.4 | 1.7 | 21.7 | 59.1 | 98.1 ± 3.2 | 98.6 ± 2.4 | 97.3 ± 2.5 | 75.6 ± 9.3 | 100.0 ± 0.0 | 0.0 ± 0.0 | Mean proportion of survival ([2]; 1 ppm, 24 hours exposure, listed as thymoquinone): not significantly different to control; Mean proportion of survival ([2]; 10 ppm, 24 hours exposure, listed as thymoquinone): completely lethal; Mean proportion of survival ([3]; 1 ppm, listed as thymoquinone): did not result in a biologically significant reduction in survival; Mean proportion of survival ([3]; 100 ppb): 92.9 ± 9.1%; mortality at 10 ppm [4]: 100%
4 | C=CCSCC=C [diallyl sulfide] | – | – | masked copepodid sea lice attraction to hosts | – | – | – | – | – | – | – | – | – | – | – | – | – | – | – | – | – | –
5 | OO [hydrogen peroxide] | – | – | – | – | – | – | – | – | – | – | – | – | – | – | – | – | – | – | – | – | mortality caused by a single treatment (salmon): 1%
6 | emamectin benzoate [EMB, reference compound] | – | – | – | – | – | – | – | – | – | 96.7 ± 4.7 | – | – | – | – | – | 0.0 ± 0.0 | 0.0 ± 0.0 | – | 0.0 ± 0.0 | – | survival, range over the dilution set ([1]; 0.5-50 ppb, 24 hours): 35.5-53.2%; Mean proportion of survival ([1]; 0.5 ppb): 53.2 ± 10.2%; Mean proportion of survival ([1]; 5 ppb): 50.7 ± 6.1%; Mean proportion of survival ([1]; 50 ppb): 35.5 ± 2.1%; Mean proportion of survival ([2]; 200 ppb, 6 hours exposure): 56.7 ± 4.7%; Mean proportion of survival ([2]; 200 ppb, 24 hours exposure): 53.3 ± 18.9%; Mean proportion of survival ([2]; 400 ppb, 6 hours exposure): 36.7 ± 14.1%; Mean proportion of survival ([2]; 400 ppb, 24 hours exposure): 23.3 ± 4.7%; Mean proportion of survival ([2]; 500 ppb, 24 hours, follow up trial): 46.9 ± 9.8%; survival, in words ([3]; all tested concentrations between 10 and 0.1 ppb): no survival
